Assay results taken from US20230365514A1, “MACROCYCLIC COMPOUNDS” (NOVO NORDISK RESEARCH CENTRE OXFORD LIMITED, priority 2017, published 2023).
Values joined by “and” are separate entries in the source; they are usually repeats but may differ in a detail not shown here. Identical values can stand only once.

What was measured:
[1] = 1H NMR titration with D-glucose; type: binding; settings: D2O; buffer differs by receptor (FIGS. 68-73, 77) (Table 6)
Method: ^1H-NMR titrations were performed on a Varian VNMR cryogenically cooled S600 spectrometer. Solutions of saccharides in D2O (99.9%), containing receptor at a known concentration to be used in the experiment, were prepared and allowed to equilibrate overnight before use if necessary. Aliquots were then added to an NMR tube containing a known concentration of receptor solution (typically 100 µM - 400 µM). The receptor concentration was therefore held constant while the carbohydrate concentration was increased. The sample tube was shaken after each addition and ^1H-NMR spectra were acquired at 298 K.
^1H-NMR titrations were performed on a Varian VNMR cryogenically cooled S600 spectrometer. Solutions of saccharides in D2O (99.9%), containing receptor at a known concentration to be used in the experiment, were prepared and allowed to equilibrate overnight before use if necessary. Aliquots were then added to an NMR tube containing a known concentration of receptor solution (typically 50 µM - 250 µM). The receptor concentration was therefore held constant while the carbohydrate concentration was increased. The sample tube was shaken after each addition, centrifuged and ^1H-NMR spectra were acquired at 298 K.
If the receptor bound saccharide slower than the NMR sample rate (“slow exchange”), the Ka was determined by analysing the NMR integral of a peak assigned to the Host-Guest complex. The variable X was defined as the integral of an isolated resonance of the complex (typically in the aromatic region) divided by the integral of all the related resonances (typically the whole aromatic region). As X is proportional to fraction of host in the bound state, the change in X could be plotted as a function of the guest concentration to give a curve which could be fitted to a 1:1 binding model to yield the association constant Ka. Mathematically, the fitting process is essentially identical to that employed for binding with fast exchange, except that the integral of a peak due to the complex replaces the chemical shift of a peak due to bound + unbound receptor. The calculation was performed using a non-linear least squares curve-fitting programme implemented within Excel. The programme yields binding constants Ka and limiting X (Xlim) as output. An estimated error for Ka was obtained from individual data points by assuming the determined Ka and Xlim.

[2] = ITC titration with D-glucose; type: binding; settings: d-glucose in 10 mM phosphate buffer, 298 K (Table 6)
Method: ITC experiments were carried out at 298 K. Saccharide solutions were prepared in HPLC-grade water with 10 mM phosphate buffer solution (pH 7.4) and allowed to equilibrate overnight if necessary. The sample cell was charged with a known concentration of receptor solution in HPLC-grade water with 10 mM phosphate buffer solution at pH 7.4 (typically 50 µM - 200 µM). Then, aliquots (typically 1.0 µL) of carbohydrate solution were added and the evolution of heat was followed as a function of time. Heats of dilution were measured by injecting the same carbohydrate solution into HPLC-grade water with 10 mM phosphate buffer solution at pH 7.4, using identical conditions. For every addition, the heat of dilution was subtracted from the heat of binding using a MicroCal software programme implemented in ORIGIN 7.0. This gave an XY matrix of heat vs. total guest concentration. This matrix was then imported into a specially written Excel programme to fit the data to a 1:1 binding model to give a Ka. ΔG can be derived from Ka and thus ΔS can be derived from ΔH and ΔG using common thermodynamic equations. […] This method consistently produced more accurate fits than fitting the data to an S-curve, as in the MicroCal software (S-curves are typically not observed for binding constants below ~104 - 105 M^-1).

Compound	Binding affinity for D-glucose (Ka), Determined by 1H-NMR [1]	Binding affinity for D-glucose (Ka), Determined by ITC [2]
CCc1c2c(CC)c3c(CC)c1CNC(=O)Nc1ccc(C(=O)NC(CCC(=O)NC(CCC(=O)[O-])(CCC(=O)[O-])CCC(=O)[O-])(CCC(=O)NC(CCC(=O)[O-])(CCC(=O)[O-])CCC(=O)[O-])CCC(=O)NC(CCC(=O)[O-])(CCC(=O)[O-])CCC(=O)[O-])cc1NC(=O)NCc1c(C)c(c(C)c(c1C)CNC(=O)Nc1cc(C(=O)NC(CCC(=O)NC(CCC(=O)[O-])(CCC(=O)[O-])CCC(=O)[O-])(CCC(=O)NC(CCC(=O)[O-])(CCC(=O)[O-])CCC(=O)[O-])CCC(=O)NC(CCC(=O)[O-])(CCC(=O)[O-])CCC(=O)[O-])ccc1NC(=O)NC3)CNC(=O)Nc1cc(C(=O)NC(CCC(=O)NC(CCC(=O)[O-])(CCC(=O)[O-])CCC(=O)[O-])(CCC(=O)NC(CCC(=O)[O-])(CCC(=O)[O-])CCC(=O)[O-])CCC(=O)NC(CCC(=O)[O-])(CCC(=O)[O-])CCC(=O)[O-])ccc1NC(=O)NC2.[Na+].[Na+].[Na+].[Na+].[Na+].[Na+].[Na+].[Na+].[Na+].[Na+].[Na+].[Na+].[Na+].[Na+].[Na+].[Na+].[Na+].[Na+].[Na+].[Na+].[Na+].[Na+].[Na+].[Na+].[Na+].[Na+].[Na+] [Receptor 14]	14926 ± 1566 M⁻¹	
CCc1c2c(CC)c3c(CC)c1CNC(=O)Nc1cc(C(=O)[O-])c(C(=O)[O-])cc1NC(=O)NCc1c(CC)c(c(CC)c(c1CC)CNC(=O)Nc1cc(C(=O)[O-])c(C(=O)[O-])cc1NC(=O)NC3)CNC(=O)Nc1cc(C(=O)[O-])c(C(=O)[O-])cc1NC(=O)NC2.[Na+].[Na+].[Na+].[Na+].[Na+].[Na+] [Receptor 11, Hexa-carboxylate Hexa-urea Macrocycle]	~ 2000 M^-1	
CCc1c2c(CC)c3c(CC)c1CNC(=O)Nc1ccc(C(=O)NCCOCCOCCOCCN)cc1NC(=O)NCc1c(CC)c(c(CC)c(c1CC)CNC(=O)Nc1cc(C(=O)NCCOCCOCCOCCN)ccc1NC(=O)NC3)CNC(=O)Nc1cc(C(=O)NCCOCCOCCOCCN)ccc1NC(=O)NC2 [Receptor 10]	481 ± 57 M⁻¹	
CCc1c2c(CC)c3c(CC)c1CNC(=O)Nc1cc(C(=O)NC(CCC(=O)NC(CCC(=O)[O-])(CCC(=O)[O-])CCC(=O)[O-])(CCC(=O)NC(CCC(=O)[O-])(CCC(=O)[O-])CCC(=O)[O-])CCC(=O)NC(CCC(=O)[O-])(CCC(=O)[O-])CCC(=O)[O-])ccc1NC(=O)NCc1c(OC)c(c(OC)c(c1OC)CNC(=O)Nc1ccc(C(=O)NC(CCC(=O)NC(CCC(=O)[O-])(CCC(=O)[O-])CCC(=O)[O-])(CCC(=O)NC(CCC(=O)[O-])(CCC(=O)[O-])CCC(=O)[O-])CCC(=O)NC(CCC(=O)[O-])(CCC(=O)[O-])CCC(=O)[O-])cc1NC(=O)NC3)CNC(=O)Nc1ccc(C(=O)NC(CCC(=O)NC(CCC(=O)[O-])(CCC(=O)[O-])CCC(=O)[O-])(CCC(=O)NC(CCC(=O)[O-])(CCC(=O)[O-])CCC(=O)[O-])CCC(=O)NC(CCC(=O)[O-])(CCC(=O)[O-])CCC(=O)[O-])cc1NC(=O)NC2.[Na+].[Na+].[Na+].[Na+].[Na+].[Na+].[Na+].[Na+].[Na+].[Na+].[Na+].[Na+].[Na+].[Na+].[Na+].[Na+].[Na+].[Na+].[Na+].[Na+].[Na+].[Na+].[Na+].[Na+].[Na+].[Na+].[Na+] [Receptor 13]		1310 M⁻¹ and 1310 ± 33 M⁻¹
Cc1c2c(C)c3c(C)c1CNC(=O)Nc1ccc(C(=O)NC(CCC(=O)NC(CCC(=O)O)(CCC(=O)O)CCC(=O)O)(CCC(=O)NC(CCC(=O)O)(CCC(=O)O)CCC(=O)O)CCC(=O)NC(CCC(=O)O)(CCC(=O)O)CCC(=O)O)cc1NC(=O)NCc1c(C)c(c(C)c(c1C)CNC(=O)Nc1cc(C(=O)NC(CCC(=O)NC(CCC(=O)O)(CCC(=O)O)CCC(=O)O)(CCC(=O)NC(CCC(=O)O)(CCC(=O)O)CCC(=O)O)CCC(=O)NC(CCC(=O)O)(CCC(=O)O)CCC(=O)O)ccc1NC(=O)NC3)CNC(=O)Nc1cc(C(=O)NC(CCC(=O)NC(CCC(=O)O)(CCC(=O)O)CCC(=O)O)(CCC(=O)NC(CCC(=O)O)(CCC(=O)O)CCC(=O)O)CCC(=O)NC(CCC(=O)O)(CCC(=O)O)CCC(=O)O)ccc1NC(=O)NC2 [Receptor 8]		4210 M⁻¹ and 4210 ± 73 M⁻¹
